From patent US20040002493A1, “Benzoic acid derivatives and pharmaceutical agents comprising the same as active ingredient” (priority 2000, published 2004)

Columns and labels:
Assay in all cases: Binding assay using cell expressing the prostanoid receptor subtypes, [3H]-PGE2 competition on CHO membrane fraction
EP1 receptor = target: T1, EP1 receptor (Mus musculus, UniProt P35375); details: mouse EP1, [3H]-PGE2 2.5 nM, pH 6.0
T1 construct: expressed in transfected cells; host or cells: CHO cells
T1 sequence (P35375 1-405): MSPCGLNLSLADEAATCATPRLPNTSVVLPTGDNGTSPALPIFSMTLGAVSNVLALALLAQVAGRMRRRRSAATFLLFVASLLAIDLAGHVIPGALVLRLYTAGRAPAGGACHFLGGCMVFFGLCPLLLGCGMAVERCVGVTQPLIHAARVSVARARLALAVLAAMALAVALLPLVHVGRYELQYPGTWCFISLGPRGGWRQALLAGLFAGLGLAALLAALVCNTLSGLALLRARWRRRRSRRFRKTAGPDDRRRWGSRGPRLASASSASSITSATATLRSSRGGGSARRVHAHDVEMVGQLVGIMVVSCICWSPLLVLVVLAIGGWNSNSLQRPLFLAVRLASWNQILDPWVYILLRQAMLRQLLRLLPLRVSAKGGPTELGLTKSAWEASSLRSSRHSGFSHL
Method: (§1) (i) Binding Assay Using Cell Expressing the Prostanoid Receptor Subtypes
(§2) The preparation of membrane fraction was carried out according to the method of Sugimoto et al [J. Biol. Chem. 267, 6463-6466 (1992)], using CHO cell expressing prostanoid receptor subtypes (mouse EP1, EP2, EP3α, and EP4).
(§3) The standard assay mixture containing membrane fraction (50 μL), [^3H]-PGE2 in a final volume of 150 μL was incubated for 1 hour at room temperature. The reaction was terminated by addition of 3 mL of ice-cold buffer. The mixture was rapidly filtered through a glass filter (GF/B) under reduced pressure. The radioactivities associated with the filters were measured by liquid scintillation counter.
(§4) Kd and Bmax values were determined from Scatchard plots [Ann. N.Y. Acad. Sci. 51, 660(1949)]. Non-specific binding was determined as the amount bound in the presence of an excess (2.5 μM) of unlabeled PGE2. In the experiment for competition of specific [^3H]-PGE2 binding assay, [^3H]-PGE2 was added at a concentration of 2.5 nM and a test compound of the present invention was added at various concentrations. The following buffer was used in all reactions.
(§5) Buffer: 10 mM potassium phosphate (pH 6.0), 1 mM EDTA, 10 mM MgCl2, 0.1 M NaCl.
(§6) The inhibition constant (Ki) (μM) of each compound was calculated by the following equation.

EP3 receptor = target: T2, EP3 receptor (Mus musculus, UniProt P30557); details: mouse EP3α, [3H]-PGE2 2.5 nM, pH 6.0
T2 construct: expressed in transfected cells; host or cells: CHO cells
T2 sequence (P30557 1-365): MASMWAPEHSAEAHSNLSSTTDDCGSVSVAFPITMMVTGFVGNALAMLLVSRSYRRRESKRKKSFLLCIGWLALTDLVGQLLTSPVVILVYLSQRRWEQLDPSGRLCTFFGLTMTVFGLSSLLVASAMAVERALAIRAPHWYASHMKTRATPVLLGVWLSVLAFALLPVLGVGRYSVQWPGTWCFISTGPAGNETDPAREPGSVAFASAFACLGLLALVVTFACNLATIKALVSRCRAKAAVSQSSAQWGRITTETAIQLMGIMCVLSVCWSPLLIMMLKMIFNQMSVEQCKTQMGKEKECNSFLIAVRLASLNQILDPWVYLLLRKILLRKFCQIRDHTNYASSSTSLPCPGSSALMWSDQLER
Method: as §1, §2, §3, §4, §5, §6

EP2 receptor = target: T3, EP2 receptor (Mus musculus, UniProt Q62053); details: mouse EP2, [3H]-PGE2 2.5 nM, pH 6.0
T3 construct: expressed in transfected cells; host or cells: CHO cells
Method: as §1, §2, §3, §4, §5, §6

EP4 receptor = target: T4, EP4 receptor (Mus musculus, UniProt P32240); details: mouse EP4, [3H]-PGE2 2.5 nM, pH 6.0
T4 construct: expressed in transfected cells; host or cells: CHO cells
Method: as §1, §2, §3, §4, §5, §6

T4 sequence (P32240 whole entry): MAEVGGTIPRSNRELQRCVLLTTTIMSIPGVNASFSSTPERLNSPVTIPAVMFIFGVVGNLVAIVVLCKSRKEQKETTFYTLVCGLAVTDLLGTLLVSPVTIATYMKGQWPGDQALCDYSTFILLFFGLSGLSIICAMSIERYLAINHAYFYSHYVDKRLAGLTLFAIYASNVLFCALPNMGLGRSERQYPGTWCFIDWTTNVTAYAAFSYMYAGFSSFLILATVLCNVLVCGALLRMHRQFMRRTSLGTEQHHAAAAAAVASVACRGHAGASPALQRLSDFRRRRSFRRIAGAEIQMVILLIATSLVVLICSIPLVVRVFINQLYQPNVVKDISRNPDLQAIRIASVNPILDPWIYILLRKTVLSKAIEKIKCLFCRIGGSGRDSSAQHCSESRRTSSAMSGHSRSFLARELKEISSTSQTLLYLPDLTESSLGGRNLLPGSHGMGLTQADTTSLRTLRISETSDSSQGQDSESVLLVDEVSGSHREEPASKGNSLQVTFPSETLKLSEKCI
T3 sequence (Q62053 whole entry): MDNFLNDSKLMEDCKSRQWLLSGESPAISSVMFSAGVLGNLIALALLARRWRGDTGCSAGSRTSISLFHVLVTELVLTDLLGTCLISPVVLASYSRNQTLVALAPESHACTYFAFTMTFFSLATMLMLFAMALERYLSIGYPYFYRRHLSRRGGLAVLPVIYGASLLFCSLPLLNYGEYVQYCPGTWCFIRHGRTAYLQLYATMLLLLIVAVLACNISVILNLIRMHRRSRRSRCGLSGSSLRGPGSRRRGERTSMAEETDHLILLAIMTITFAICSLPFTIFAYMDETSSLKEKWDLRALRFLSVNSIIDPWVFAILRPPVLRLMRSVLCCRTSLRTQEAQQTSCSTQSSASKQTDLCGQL

Ki (EP1 receptor): 1500 nM
Ki (EP3 receptor): 60 nM
Ki (EP2 receptor): 8000 nM
Ki (EP4 receptor): 10 nM
SMILES: CC(C(=O)Nc1ccccc1Cc1ccccc1C(=O)O)c1ccc(OCc2ccccc2)cc1 (stereo not shown) [2(1), 2-[2-[2-(4-Benzyloxyphenyl)propanoylamino]phenyl]methylbenzoic Acid]
